The numbers were not newly measured in patent publication US20230165842A1, “NEW USES” (priority 2020, published 2023), which cites them from elsewhere.

The test system of series [1] is adults with confirmed SARS-CoV-2 infection.
Series [2] relates to hospitalised Covid-19 patients.
Series [3] deals with dysgeusia in COVID positive patients.
The test system of series [4] is COVID-19-induced pulmonary fibrosis.
A further series has as its system SARS-CoV-2. Set-up: Reducing Viral propagation: concentration or dose not given beside the values. Particulars: Vero E6; MOI=0.0005.
[5] abbreviates: six weeks after initiation of therapy.

Read-outs that look alike come from different tables or passages of the source.

As to `COCCCC/C(=N\OCCN)c1ccc(C(F)(F)F)cc1` [Compound 34, fluvoxamine], the “incidence of subsequent hospitalization” value in the series on Covid positive patients (0 of 65, vs 12.5% with observation) is 0%. Besides, the “ongoing symptoms present at day 14” value with Covid positive patients (0 of 65, vs 60% with observation alone) is 0%. In the series with Covid positive patients (50 mg twice daily for 14 days), the serious adverse events result is on record as “No serious adverse events”. Further, the “Respiratory Rate” value in the series with Covid positive patients (Day 1, N = 65) is 17.7 ± 2.9. Also, the “Respiratory Rate” value with Covid positive patients (Day 7, N = 65) is on record as 12.9 ± 1.6. In the series with Covid positive patients (N = 65), the “Hospitalized within 14 days (patients)” value was 0, the “ICU care and/or Death (patients)” value was 0, the “Symptoms at Day 14: 1-3 (patients)” value is 0 and the “Symptoms at Day 14: 4-6 (patients)” value is recorded as 0. In addition, in the series on Covid positive patients (N = 65), the “Symptoms at Day 14: None (patients)” value is on record as 65 and the “Symptoms at Day 14: ≥7 (patients)” value is recorded as 0. In addition, the “adverse events leading to early discontinuation” value with Covid positive patients (human, in vivo) was “No adverse events led to early discontinuation”. The “serious adverse event (number)” value in series [1] (fluvoxamine group, placebo 6) is given as 1. Moreover, the “other adverse events (number)” value in series [1] (fluvoxamine group, placebo 12) was 11. In series [1] (fluvoxamine vs placebo), the “Absolute difference (95% CI), any nonzero value” is −8.3%; the “Absolute difference (95% CI), clinical deterioration” value is listed as 8.7%; the “Absolute difference (95% CI), clinical status 0 (none)” value was 8.3%; the “Absolute difference (95% CI), clinical status mean” value was −0.22. Further, in series [1] (n = 80), the “Clinical status on 7-point scale, mean (SD)” value is recorded as 0; the “Clinical status on 7-point scale: 0 (none), No. (%)” value is on record as 80 (100); the “Clinical status on 7-point scale: Any nonzero value, No. (%)” value was 0. Further, the “Primary end point Clinical deterioration (met both criteria), No. (%)” value in series [1] (n = 80, 100 mg 3 times daily for 15 days) is 0.
As for `COc1cc(Nc2ncc(F)c(Nc3ccc4c(n3)N(COP(=O)(O)O)C(=O)C(C)(C)O4)n2)cc(OC)c1OC` [Compound 35, fostamatinib], the “primary endpoint of safety” value in series [2] (Phase II, oral twice-daily plus SOC for 14 days) is “met the primary endpoint of safety”. Further, the “improvement in clinical status” value in series [2] (by day 15 and 29) was “superior to placebo”. For the same compound, the “outcome of intubated patients on mechanical ventilation” value in series [2] (two patients receiving drug) was “improved in seven days and were off the ventilator”. Moreover, the “chances of occurrence of serious adverse events” value in series [2] (vs placebo) is on record as “halved”. In addition, the “number of days in the ICU” value in series [2] (vs seven in the placebo group) is given as “three”. The deaths result in series [2] (vs three deaths in the placebo arm) was “No deaths”.
As for `C[C@]12C=CC(=O)C=C1CC[C@H]1[C@@H]3C[C@@H](O)[C@](O)(C(=O)CO)[C@@]3(C)C[C@H](O)[C@@]12F` [Compound 72, triamcinolone], in series [3] (Cases (n = 60), day 5), the “bitter identified: NO (patients)” value is listed as 7, the “bitter identified: YES (patients)” value is 53, the “salt identified: NO (patients)” value was 10 and the “salt identified: YES (patients)” value is given as 50. Moreover, in series [3] (Cases (n = 60), day 5), the “sour identified: NO (patients)” value is reported as 10, the “sour identified: YES (patients)” value was 50, the “sweet identified: NO (patients)” value is 5 and the “sweet identified: YES (patients)” value is reported as 55. In addition, in series [3] (all anosmia and dysgeusia cases), the “recovery of sense of smell taste” value is on record as “recovered their sense of smell taste within a week”. For the same compound, in series [3] (oral paste, fifth day), the improved for bitter is listed as 83.33%, the “improved for salty taste” value was 83.33%, the “improved for sour taste” value is recorded as 83.34% and the improved for sweet is on record as 91.67%.
On to `COC(=O)c1ccc2c(c1)NC(=O)/C2=C(\Nc1ccc(N(C)C(=O)CN2CCN(C)CC2)cc1)c1ccccc1` [Compound 134, nintedanib], for which, in series [4] (300 mg/day oral, managed with reduction to 200 mg/day), the “serum level of alanine aminotransferase (adverse event)” value is “became elevated”. Besides, the “Ground-glass opacities of the lung (CT)” value in series [4] (FIG. 29-D) is on record as “mildly attenuated without further progression of pulmonary fibrosis”. Also, in series [4] (after three months of rehabilitation with drug and tapering of prednisolone), the “respiratory condition and exercise tolerance” value was “improved”. In addition, the other side effects result in series [4] (in vivo) is “No other side effects”. Also, in series [4] (setting [5]), the vital capacity is recorded as 1.27 L and the “vital capacity per predicted” value is 61.7%.
Regarding `NC1(c2ccc(-c3nc4ccn5c(=O)[nH]nc5c4cc3-c3ccccc3)cc2)CCC1` [Compound 173, mk-2206], in the series on SARS-CoV-2, the IC50 (in general, the concentration that inhibits the measured activity by half) was 0.09 µM and the “Reducing Viral propagation” value is given as 88%.
Take `NCCCCNCCCN` [Reference Compound 2, spermidine]: in the series on SARS-CoV-2, the half-inhibitory concentration (IC50) is 149 µM and the “Reducing Viral propagation” value is recorded as 85%.
As for `O=C(Nc1ccc([N+](=O)[O-])cc1Cl)c1cc(Cl)ccc1O` [Reference Compound 3, niclosamide], in the series on SARS-CoV-2, the IC50 was 17 µM and the “Reducing Viral propagation” value is given as over 99%.
